From patent US20240287063A1, “METHIONINE ADENOSYLTRANSFERASE 2A INHIBITOR” (NANJING CHIA TAI TIANQING PHARMACEUTICAL CO., LTD., priority 2021, published 2024)
pIC50: −log10 of the molar value. Counter-ions that a name gives are not always drawn.

What was measured:
[1] = test system: HCT116 MTAP −/− cells; assay: Cell testing method: HCT116 MTAP-/- cell proliferation inhibition (CellTiter-Glo, 120 h); format: cell-based; conditions: Homo sapiens, HCT-116; score by IC50 for inhibiting HCT116 MTAP−/− cells
Description: HCT116 MTAP −/− cells (purchased from Horizon Discovery): human colorectal cancer cell lines with MTAP gene deletion were cultured in medium RPMI 1640+10% FBS (Fetal bovine serum). On day 0 of the experiment, the live cell density of the foregoing cells in logarithmic growth phase was adjusted to 5000 cells/ml, the cells were inoculated to a 96-well plate by an amount of 100 μl/well, and a blank group was set in parallel; and the inoculated cell plate was put into a 37° C., 5% CO2 incubator for overnight culture.
On day 1 of the experiment, the overnight cultured cell plate was taken out, the supernatant was discarded, 80 μl of serum-free RPMI 1640 medium was added to each well, and place the cells in an incubator for starvation cultivation for 4 h. The compound to be tested was dissolved in DMSO (dimethyl sulfoxide) to prepare a 10 mM compound stock solution. After starvation, the cell plate was taken out, and 80 μl of RPMI 1640+20% FBS medium was added to each well; the cell plate was placed on an automatic liquid dispenser D300e (Tecan), and a dosing program was set as follows: a maximum concentration of the compound to be tested was 30 μM, the compound was diluted with DMSO by a 3 times concentration gradient, there was a total of 10 concentrations, two duplicate wells were set for each concentration, and the DMSO final concentration in each well of the 96-well plate was 0.3%, v/v. The pre-prepared 10 mM stock solution of the compound to be tested was taken out, and the above dosing program was run for dosing. After the dosing was completed, the cell plate was placed in incubator and culture for 120 h.
On day 6 of the experiment, the cell plate was taken out, 50 μl of CellTiter-Go® (purchased from Promega) was added to each well, and fluorescence signal was measured on Envision (PerkinElmer) according to operation procedures in the manual.
A dose-effect curve: log(inhibitor) vs. response-Variable slope was fitted by using GraphPad Prism 5 software to obtain an IC50 value of the compound for inhibiting cell proliferation inhibition. A formula for calculating an inhibition rate was: […]
Wherein, • Signal value of tested compound: mean fluorescence signal of cells group+medium group+compound group; • Signal value of blank group: mean fluorescence signal of medium group; • Signal value of negative control group: mean fluorescence signal of cells group+medium group.

[2] = target: T1, MAT2A enzyme (Homo sapiens, UniProt P31153); assay: Enzymatic testing method for MAT2A (Biomol Green, OD620); format: biochemical; conditions: score by IC50 for inhibiting MAT2A; read-out: MAT2A inhibition score
T1 construct: purchased BPS 71401
Description: • a) A 5×MAT2A test buffer (250 mM Tris-HCl, pH 8.0; 250 mM KCl; 75 mM MgCl2; 0.025% BSA; 0.05% Brij35; 1.5 mM EDTA) was first prepared and partially diluted to 1× for later use; • b) Preparation and addition of MAT2A enzyme (BPS, 71401): the MAT2A enzyme was prepared into 3.674 ng/L by using the 1×MAT2A test buffer (1.67×, final concentration 2.20 ng/L), a BioTek (MultiFlo FX) automatic liquid separator was used, 15 μL of 1.67×MAT2A enzyme solution was added to compound test wells and negative control wells respectively, and 15 μL of 1×MAT2A test buffer was added to blank control wells; • c) Preparation and addition of a compound: a compound to be tested was diluted with DMSO from 10 mM stock solution to 100 μM, a positive drug AGI-24512 was diluted under the same conditions, and the diluted compound and positive drug were automatically sprayed into each well by using a Tecan compound titrator (D300e) according to preset concentration gradients, where the spray volume was little and negligible. The concentration gradient was initially 1 μM, the dilution was implemented by ½ log, and a total of 8 gradients were set. Centrifugation at 2500 rpm for 30 s and incubation at 25° C. for 30 min were performed; • d) Preparation of ATP: 10 mM ATP (Sigma, A7699) was diluted with 1×MAT2A test buffer to 700 μM for later use; • e) Preparation and addition of a substrate and ATP mixture: 5×MAT2A test buffer, 3 μL/well; 750 μM L-methionine (Adamas, 01100469), 2.5 μL/well; 700 μM ATP, 2.5 μL/well; and double distilled water, 2 μL/well. A total amount of required mixture was prepared according to the number of test wells, and 10 μL of the mixture was added to each well by using the BioTek (MultiFlo FX) automatic liquid separator, followed by centrifugation at 2500 rpm for 30 s and reaction at 25° C. for 150 min; • f) Addition of Biomol Green detection reagent: 50 μL of Biomol Green (Enzo, BML-AK111) was added to each well by using the BioTek (MultiFlo FX) automatic liquid separator, followed by centrifugation at 2500 rpm for 30 s and incubation at 25° C. for 20 minutes; • g) After the reaction, OD620 values were read by using a Perkin Elmer (Envision 2105) multifunctional plate reader.
A formula for calculating an inhibition rate was as follows: […]
Wherein, • % Inhibition: inhibition rate % • ODsample: OD620 value in a sample well; • ODmin: representing a mean OD620 value of blank control wells without the enzyme or compound to be tested; • ODmax: representing a mean OD620 value of negative control wells with the enzyme and without the compound.
Then a dose-effect curve log(inhibitor) vs. response-Variable slope was fitted by usingGraphPad Prism 5 software to obtain an IC50 value of compound for MAT2A enzyme inhibition.

T1 sequence (P31153 whole entry): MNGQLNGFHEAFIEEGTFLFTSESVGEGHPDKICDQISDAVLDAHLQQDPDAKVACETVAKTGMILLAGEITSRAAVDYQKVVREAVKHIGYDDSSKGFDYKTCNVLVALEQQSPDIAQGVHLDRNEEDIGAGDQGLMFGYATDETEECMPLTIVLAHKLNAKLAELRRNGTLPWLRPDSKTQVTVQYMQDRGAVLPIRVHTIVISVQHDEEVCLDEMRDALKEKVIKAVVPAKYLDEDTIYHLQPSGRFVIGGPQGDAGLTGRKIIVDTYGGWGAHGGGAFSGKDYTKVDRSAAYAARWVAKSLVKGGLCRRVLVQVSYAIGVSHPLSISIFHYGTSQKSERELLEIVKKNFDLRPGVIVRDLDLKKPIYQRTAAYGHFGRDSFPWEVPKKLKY

Row | Structure (SMILES) | pIC50 [1] | pIC50 [2]
1 | O=c1c(-c2ccc(OC(F)F)cc2)cn2ccc(C3CC3)cc2c1-c1ccc(OC(F)F)cc1 [Example 3, 8-cyclopropyl-1,3-bis(4-(difluoromethoxy)phenyl)-2H-quinolizin-2-one] | > 6.82 | > 7.30
2 | CCOc1ccn2cc(-c3ccc(OC(F)F)cc3)c(=O)c(-c3ccc(OC(F)F)cc3)c2c1 [Example 4] | > 6.82 | > 7.30
3 | Cn1nc2ccc(-c3cn4ccc(C5CC5)cc4c(-c4ccc5c(c4)OC(F)(F)O5)c3=O)cc2c1N [Example 6, 3-(3-amino-2-methyl-2H-indazol-5-yl)-8-cyclopropyl-1-(2,2-difluoro-1,3-benzodioxol-5-yl) quinolizin-2-one hydrochloride] | 6.40 to 6.82 | > 7.30
4 | Cn1nccc1-c1c2cc(-c3cn4ccc(C5CC5)cc4c(-c4ccc5c(c4)OC(F)(F)O5)c3=O)ccc2nn1C [Example 7, 8-cyclopropyl-1-(2,2-difluoro-1,3-benzodioxol-5-yl)-3-[2-methyl-3-(2-methylpyrazol-3-yl)indazol-5-yl]quinolizin-2-one] | 6.00 to 6.40 | > 7.30
5 | Cn1cc2cc(-c3cn4ccc(NCC(F)(F)F)nc4c(-c4ccc(OC(F)F)cc4)c3=O)ccc2n1 [Example 9, 9-[4-(difluoromethoxy)phenyl]-7-(2-methyl-2H-indazol-5-yl)-2-[(2,2,2-trifluoroethyl)amino]-8H-pyrido[1,2-a]pyrimidin-8-one] | > 6.82 | > 7.30
6 | O=c1c(-c2ccc(OC(F)F)cc2)cn2ccc(NCC(F)(F)F)nc2c1-c1ccc(OC(F)F)cc1 [Example 10, 7,9-bis[4-(difluoromethoxy)phenyl]-2-[(2,2,2-trifluoroethyl)amino]-8H-pyrido[1,2-a]pyrimidin-8-one] | > 6.82 | > 7.30
7 | COc1ccc(-c2cn3ccc(NCC(F)(F)F)nc3c(-c3ccc(OC)cc3)c2=O)cc1 [Example 11, 7,9-bis[(4-methoxyphenyl)]-2-[(2,2,2-trifluoroethyl)amino]-8H-pyrido[1,2-a]pyrimidin-8-one] | > 6.82 | > 7.30
8 | Cn1cc2cc(-c3cn4ccc(NCC(F)(F)F)nc4c(-c4ccc5nn(C)cc5c4)c3=O)ccc2n1 [Example 12, 7,9-bis[(2-methyl-2H-indazol-5-yl)]-2-[(2,2,2-trifluoroethyl)amino]-8H-pyrido[1,2-a]pyrimidin-8-one] | < 6.00 | > 7.30
9 | CN1C(=O)c2c3cc(-c4cn5ccc(NCC(F)(F)F)nc5c(-c5ccc(OC(F)F)cc5)c4=O)ccc3nn2CC12CC2 [Example 15, 9′-{9-[4-(difluoromethoxy)phenyl]-8-oxo-2-[(2,2,2-trifluoroethyl)amino]pyrido[1,2-a]pyrimidin-7-yl}-2′-methyl-4′H-spiro[cyclopropane-1,3′-pyrazino[1,2-b]indazol]-1′-one] | 6.00 to 6.40 | > 7.30
10 | O=C1Cn2nc3ccc(-c4cn5ccc(NCC(F)(F)F)nc5c(-c5ccc(OC(F)F)cc5)c4=O)cc3c2C2(CC2)N1 [Example 16, 9′-{9-[4-(difluoromethoxy)phenyl]-8-oxo-2-[(2,2,2-trifluoroethyl)amino]pyrido[1,2-a]pyrimidin-7-yl}-2′,4′-dihydrospiro[cyclopropane-1,1′-pyrazino[1,2-b]indazol]-3′-one] | 6.00 to 6.40 | > 7.30
11 | Cn1cc2cc(-c3cn4ccc(NCC(F)(F)F)nc4c(-c4ccc5c(c4)OC(F)(F)O5)c3=O)ccc2n1 [Example 20, 9-(2,2-difluoro-1,3-benzodioxol-5-yl)-7-(2-methyl-2H-indazol-5-yl)-2-[(2,2,2-trifluoroethyl)amino]-8H-pyrido[1,2-a]pyrimidin-8-one] | > 6.82 | > 7.30
12 | O=c1c(-c2ccc(OC(F)F)cc2)cn2ccc(OCC(F)(F)F)nc2c1-c1ccc(OC(F)F)cc1 [Example 24, 7,9-bis[4-(difluoromethoxy)phenyl]-2-(2,2,2-trifluoroethoxy)-8H-pyrido[1,2-a]pyrimidin-8-one] | > 6.82 | > 7.30
13 | Cn1cc2cc(-c3cn4ccc(C5CC5)nc4c(-c4ccc5c(c4)OC(F)(F)O5)c3=O)ccc2n1 [Example 26, 2-cyclopropyl-9-(2,2-difluoro-1,3-benzodioxol-5-yl)-7-(2-methyl-2H-indazol-5-yl)-8H-pyrido[1,2-a]pyrimidin-8-one] | > 6.82 | > 7.30
14 | O=c1c(-c2ccc(OC(F)F)cc2)cn2ccc(C3CC3)nc2c1-c1ccc2c(c1)OC(F)(F)O2 [Example 27, 2-cyclopropyl-9-(2,2-difluoro-1,3-benzodioxol-5-yl)-7-[4-(difluoromethoxy)phenyl]-8H-pyrido[1,2-a]pyrimidin-8-one] | < 6.00 | 6.70 to 7.30
15 | O=c1c(-c2ccc3c(c2)OCO3)cn2ccc(C3CC3)nc2c1-c1ccc2c(c1)OCO2 [Example 28, 7,9-bis(2H-1,3-benzodioxol-5-yl)-2-cyclopropyl-8H-pyrido[1,2-a]pyrimidin-8-one] | > 6.82 | > 7.30
16 | O=c1c(-c2ccc3c(c2)OCO3)cn2ccc(C3CC3)nc2c1-c1ccc2c(c1)OC(F)(F)O2 [Example 32, 7-(2H-1,3-benzodioxol-5-yl)-2-cyclopropyl-9-(2,2-difluoro-1,3-benzodioxol-5-yl)pyrido[1,2-a]pyrimidin-8-one] | > 6.82 | > 7.30
17 | CN1Cc2c3cc(-c4cn5ccc(C6CC6)nc5c(-c5ccc(OC(F)F)cc5)c4=O)ccc3nn2CC12CC2 [Example 38, 2-cyclopropyl-9-(4-(difluoromethoxy)phenyl)-7-(2′-methyl-1′,2′-dihydro-4′H-spiro[cyclopropane-1,3′-pyrazino[1,2-b]indazol]-9′-yl)-8H-pyrido[1,2-a]pyrimidin-8-one] | > 6.82 | > 7.30
18 | O=c1c(-c2ccc3nn4c(c3c2)CNC2(CC2)C4)cn2ccc(C3CC3)nc2c1-c1ccc(OC(F)F)cc1 [Example 39, 2-cyclopropyl-9-(4-(difluoromethoxy)phenyl)-7-(1′,2′-dihydro-4′H-spiro[cyclopropane-1,3′-pyrazino[1,2-b]indazol]-9′-yl)-8H-pyrido[1,2-a]pyrimidin-8-one] | > 6.82 | > 7.30
19 | Cc1cc(NCC(F)(F)F)nc2c(-c3ccc(OC(F)F)cc3)c(=O)c(-c3ccc(OC(F)F)cc3)cn12 [Example 41, 7,9-bis(4-(difluoromethoxy)phenyl)-4-methyl-2-((2,2,2-trifluoroethyl)amino)-8H-pyrido[1,2-a]pyrimidin-8-one] | > 6.82 | > 7.30
